Test results from patent publication US7659277B2, “Ubiquitin ligase inhibitors and methods related thereto” (Proteologies, Ltd., priority 2003, dated 2010).

What was measured:
Type in all cases: biochemical
POSH = biological target: T1, POSH (Homo sapiens, UniProt Q7Z6J0); assay: IC50 assay procedure: GST-POSH auto-ubiquitination, homogeneous time-resolved fluorescence (Ub-cryptate / anti-GST XL665); conditions: ubiquitin ligase activity of POSH; GST-POSH 33 nM, 30 min preincubation
T1 construct: GST-POSH lot NB81/p.118 3.6 mg/ml; fused on or other part: GST tag, used for detection with anti-GST XL665
T1 sequence (Q7Z6J0 1-269 limits assumed): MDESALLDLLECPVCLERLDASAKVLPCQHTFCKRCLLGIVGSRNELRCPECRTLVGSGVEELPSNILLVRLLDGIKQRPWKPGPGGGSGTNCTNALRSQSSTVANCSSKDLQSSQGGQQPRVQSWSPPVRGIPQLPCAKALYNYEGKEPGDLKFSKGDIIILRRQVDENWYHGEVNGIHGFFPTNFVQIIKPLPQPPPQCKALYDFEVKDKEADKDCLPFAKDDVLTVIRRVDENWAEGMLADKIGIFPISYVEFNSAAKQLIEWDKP
Source text: In certain preferred embodiments, agents that inhibit (or promote) the ubiquitin ligase activity of a ubiquitin ligase, such as POSH, may be identified using a homogenous time resolved fluorescence assay. Such an assay may employ a GST fused to the RING subunit of a ubiquitin ligase (e.g. POSH). Two flurophore-conjugated detection reagents are also used: anti-GSTXL665 and europium cryptate labeled ubiqutin. The ubiqutination of the ubiquitin ligase by ubiqutin cryptate and binding of the anti-GST tagged XL665 brings the fluorophores into close proximity allowing FRET reaction to occur. Accordingly, FRET serves as a measurement of ubiquitination of the ubiquitin ligase. An enzymatic system may be set up to provide activated ubiquitin, e.g., by providing ubiquitin, an E1 and an E2. Compounds that will not allow the FRET reaction are considered to be inhibitors.
Step 3: establish IC 50 value measurements.
Experimental Protocols: 1. HTS Screening Assay Procedure • Microplates 10109D to 10114D compounds at 1 mM. • (Controls in column 1). • All compounds were perchase from ChemBridge corporation: ChemBridge corporation 16981 Via Tazon, Suite G San Diego, Calif. 92127 a. Microplates Labeling • Put labels to 6 PS U-bottom clear microplate. • Put labels to 18 black microplates (triplicats). b. Microplates Preparation • Put 100 μl GST-POSH at 33 nM in wells of the clear PS U-bottom microplates (exept wells A1-D1). • Negative control: place 100 μl dH2O in wells A1-D1. • (Positive control: place 100 μl GST-POSH at 33 nM in wells E1-H1). • Put 8 μl enzymes solution ×4 to black microplates (column 1 to 11). c. Incubation of E3 with Compounds • Transfer 5 μl of compounds (at 1 mM) to the microplates containing 100 μl GST-POSH. • Add 5 μl of DMSO to controls column 1. • Incubation 30 minutes at RT. d. Enzymatic (Ubiquitination) and Final Steps • Distribution of (triplicate) 3×23 μl incubated compounds into 3 black microplates containing enzymatic solution (on splitting apparatus). • Incubation 30 minutes at 37° C. • Addition of 8 μl EDTA 0.5 M. • Incubation 15 (at least) minutes at RT. • Addition of 30 μl GST XL 665 in reconstitution buffer. • Incubation 45 (at least) minutes at RT. • Reading fluorescence. • Record results in computer. • Put sealing foil back on original and diluted microplates and keep at −70° C. • Always the plates must be closed with lids during each step. 2. […] Microplates Labeling • Put labels to 4 clear PP clear microplate (18.2 μM, 9.1 uM, 1.82 uM, 910 nM,). • Put labels to 5 clear PS U-bottom clear microplate 4.44 μM, 909, 444, 91 and 44 nM) • Put labels to 15 black microplates (triplicates). f. Original Microplate Dilutions • Put DMSO 40 μl to (18.2 μM, 1.82 uM plates) and 20 ul to (9.1 uM, 910 nM plates. • Mix by pipetation the original microplate (3× up and down 45 μl). • Transfer 10 μl of compounds from the original microplate (at 91 μM) to the next microplate (=18.2 μM) on splitting apparatus. • Mix by pipetation the 18.2 uM microplate (3× up and down 45 μl). • Transfer 20 μl of compounds from the 18.2 uM microplate to the next microplate (=9.1 μM) on splitting apparatus. • Mix by pipetation the 9.1 uM microplate (3× up and down 45 μl). • Transfer 10 μl of compounds from the 9.1 uM microplate to the next microplate (=1.82 μM) on splitting apparatus. • Mix by pipetation the 1.82 uM microplate (3× up and down 45 μl). • Transfer 20 μl of compounds from the 1.82 uM microplate to the next microplate (=910 nM) on splitting apparatus • Mix by pipetation. g. Microplates Preparation • Put 123 μl GST-POSH at 33 nM in wells of the 5 clear PS U-bottom clear microplates. • Positive control: place 123 μl GST-POSH at 33 nM in well A12-h12 13 μl DMSO. • Negative control: place 123 μl dH2O in well B1 and 13 μl DMSO. • Put 8 μl enzymes solution ×4 to 15 black microplates. • Controls: put 8 μl enzymes solution ×4 to wells A1 to F1. h. […]

Hmdm2 = Hmdm2 (Homo sapiens, UniProt Q00987); assay: Selectivity (% A in 1 μM), ubiquitin ligase activity of Hmdm2; conditions: % activity at 1 μM compound; control is related to 100% activity; HTS protocol; read-out: Selectivity (% A* in 1 μM) Hmdm2
c-cbl = c-cbl (Homo sapiens, UniProt P22681); assay: Selectivity (% A in 1 μM), ubiquitin ligase activity of c-cbl; conditions: % activity at 1 μM compound; control is related to 100% activity; HTS protocol
E2 protein = conditions: % activity at 1 μM compound; control is related to 100% activity; HTS protocol

Sequence of Hmdm2 (Q00987 whole entry): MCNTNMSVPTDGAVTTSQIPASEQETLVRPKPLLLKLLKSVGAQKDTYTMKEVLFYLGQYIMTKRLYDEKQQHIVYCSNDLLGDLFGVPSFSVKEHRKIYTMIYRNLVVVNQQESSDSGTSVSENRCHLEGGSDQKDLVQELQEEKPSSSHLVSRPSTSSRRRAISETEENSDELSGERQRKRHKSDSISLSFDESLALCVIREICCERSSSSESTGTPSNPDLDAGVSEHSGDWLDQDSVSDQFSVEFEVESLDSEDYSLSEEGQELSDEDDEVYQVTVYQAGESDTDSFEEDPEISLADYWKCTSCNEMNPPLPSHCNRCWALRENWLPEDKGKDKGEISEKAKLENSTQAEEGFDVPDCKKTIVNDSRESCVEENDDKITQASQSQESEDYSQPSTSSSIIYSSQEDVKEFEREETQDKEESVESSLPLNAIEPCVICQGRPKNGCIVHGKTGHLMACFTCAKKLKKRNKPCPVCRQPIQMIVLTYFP

Row | SMILES | IC50 (POSH) | remaining activity at 1 µM (Hmdm2) | remaining activity at 1 µM (c-cbl) | Selectivity (% A* in 1 μM) E2 (E2 protein)
1 | O=C1NC(=O)N(c2ccc(Br)cc2)C(=O)/C1=C/c1ccc(O)cc1 [Compound 5] | 300 nM | 61% |  | 
2 | O=C1NC(=S)N(c2ccccc2)C(=O)/C1=C\c1c(Cl)cccc1Cl [Compound 6] | 800 nM | 129% |  | 
3 | COc1ccc(N2C(=O)NC(=O)/C(=C\c3ccc(Cl)cc3)C2=O)cc1 [Compound 7] | 1000 nM | 101% |  | 
4 | COc1cc(C=C2C(=O)N(C)C(=S)N(C)C2=O)ccc1O [Compound 9] | 10000 nM | 103% |  | 
5 | COc1ccccc1N1C(=O)NC(=O)/C(=C\C=C\c2ccccc2)C1=O [Compound 10] | 1000 nM | 116% |  | 
6 | COc1ccc(/C=C2\C(=O)NC(=S)N(c3ccccc3)C2=O)cc1 [Compound 11] | 10000 nM | 95% |  | 
7 | C=CCN1C(=O)NC(=O)/C(=C/c2ccc(F)cc2)C1=O [Compound 12] | 1000 nM | 99% |  | 
8 | O=C1C(=Cc2ccco2)C(=O)N(c2ccccc2)C(=S)N1c1ccccc1 [Compound 13] | 1000 nM | 11% |  | 
9 | COc1cc(N/C=C2/C(=O)NC(=S)N(c3cccc(C)c3)C2=O)cc(OC)c1 [Compound 16] | 1000 nM | 86% |  | 
10 | COc1cc(N/C=C2/C(=O)NC(=S)N(c3ccc(F)cc3)C2=O)cc(OC)c1 [Compound 17] | 700 nM | 106% |  | 
11 | COC(=O)c1ccc(N2C(=O)c3cccc(N)c3C2=O)cc1 [Compound 21] | 800 nM | 80% | 91% | 75%
12 | O=C1CC(NNc2ccccc2)C(=O)N1c1cccc(Cl)c1 (stereo not drawn) [Compound 22] | 900 nM | 102% | 64% | 91%
13 | O=C1C=CC(=O)N1c1cc(Cl)cc(Cl)c1 [Compound 23] | 200 nM | 107% | 102% | 112%
14 | O=C1\C(=C/C=C/C=C/Nc2ccccc2)SC(=S)N1c1ccccc1 [Compound 24] | 1000 nM | 69% | 90% | 87%
15 | CC(C)Oc1ccc(/C=C2/SC(=S)NC2=O)cc1 [Compound 26] | 3000 nM | 98% | 85% | 61%
16 | CC(=C\c1ccccc1)/C=C1/SC(=N)NC1=O [Compound 31] | 900 nM | 102% | 108% | 104%
17 | COc1cc(/C=C2\SC(=O)NC2=O)ccc1OCc1ccc(Cl)cc1Cl [Compound 34] | 1000 nM | 123% | 135% | 93%

Row | SMILES | IC50 (POSH) | remaining activity at 1 µM (Hmdm2) | remaining activity at 1 µM (c-cbl) | Selectivity (% A* in 1 μM) E2 (E2 protein)
18 | O=C1N=C(c2ccccc2)S/C1=C/c1ccc(-c2cccc([N+](=O)[O-])c2)o1 [Compound 36] | 1000 nM | 71% | 86% | 82%
19 | N/N=C\c1ccc(-c2cccs2)s1 [Compound 37] | 1000 nM | 107% | 93% | 97%
20 | O=c1nc(C(F)(F)F)cc(/C=C/c2ccc(-c3ccc(Br)cc3)o2)[nH]1 [Compound 39] | 1000 nM | 108% | 132% | 98%
21 | O=c1oc2cc(O)ccc2cc1-c1csc(-c2ccc(Cl)cc2)n1 [Compound 40] | 1000 nM | 159% | 95% | 117%
22 | O=C1N=C(c2ccccc2)S/C1=C/c1ccc2ccccc2c1 [Compound 41] | 1000 nM | 106% | 141% | 82%
23 | COc1ccccc1/C=C1\N=C(c2ccccc2Cl)OC1=O [Compound 49] | 1000 nM | 115% | 127% | 43%
24 | O=C1/C(=C\c2ccc(Cl)c([N+](=O)[O-])c2)Sc2ccccc21 [Compound 50] | 100 nM | 98% | 155% | 103%
25 | O=c1/c(=C/c2cccc([N+](=O)[O-])c2O)sc2nc3ccccc3n12 [Compound 51] | 700 nM | 80% | 104% | 113%
26 | O=C1/C(=C\c2cccc([N+](=O)[O-])c2)Sc2ccccc21 [Compound 52] | 1300 nM | 107% | 124% | 63%
27 | Oc1c(Br)cc(Cl)cc1/C=N/c1ccccc1Br [Compound 58] | 800 nM | 102% | 115% | 108%
28 | O=[N+]([O-])c1ccc(-c2ccc(/N=C/c3c(O)ccc4ccccc34)cc2)cc1 [Compound 60] | 1000 nM | 90% | 110% | 53%
29 | Oc1c(Br)cc(Br)cc1/C=N/c1ccc(Br)cn1 [Compound 61] | 700 nM | 131% | 133% | 52%
30 | Oc1c(Br)cc(Br)cc1/C=N/c1nc2ccccc2s1 [Compound 62] | 700 nM | 120% | 134% | 94%
31 | Oc1c(Cl)cc(Cl)cc1/C=N/c1ccc(-c2nc3ccccc3[nH]2)cc1 [Compound 63] | 600 nM | 102% | 95% | 109%
32 | COc1ccc(CC(C)NCc2ccccc2Cl)cc1 (stereo not drawn) [Compound 107] | 1000 nM | 113% |  | 
33 | O=C1NC(=O)/C(=C\c2ccc(-c3ccc(F)cc3)o2)S1 [Compound 108] | 900 nM | 108% |  | 
